Earlier results on one compound are cited in US11603570B2, “Methods for the detection and treatment of leukemias that are responsive to DOT1L inhibition” (MEMORIAL SLOAN KETTERING CANCER CENTER, priority 2013, dated 2023).

Read-outs that look alike come from different tables or passages of the source.

The conditions of series [1]: rats; cited from earlier work.
The conditions of series [2]: mice or rats, at a dose efficacious against MLL-translocated leukemia cells; cited from earlier work.
Series [3] concerns MLL-translocated leukemia cells. To be noted: infusion, including continuous infusion; cited from earlier work.
For series [4] the following is noted: dogs; cited from earlier work.
For series [5], the system named is MLL-rearranged leukemia xenograft. To be noted: cited from earlier work.
Series [6] deals with other methyltransferases. The note with it: in words; FIG. 1B; cited from earlier work.
For series [7] the following is noted: cited from earlier work.

Consider `CC(C)N(C[C@H]1O[C@@H](n2cnc3c(N)ncnc32)[C@H](O)[C@@H]1O)C1CC(CCc2nc3cc(C(C)(C)C)ccc3[nH]2)C1` (stereo partly drawn) [EPZ005676, (2R,3R,4S,5R)-2-(6-amino-9H-purin-9-yl)-5-((((1r,3S)-3-(2-(5-(tert-butyl)-1H-benzo[d]imidazol-2-yl)ethyl)cyclobutyl)(isopropyl)amino)methyl)tetrahydrofuran-3,4-diol], for which the “effective pharmacokinetic half-life in systemic circulation” value in series [1] was 15 min; in series [4], 90 min. The hematopoietic toxicity entry in series [2] is “did not show hematopoietic toxicity”. For the same compound, the “growth of MLL-translocated leukemia cells in mice” value in series [3] is reported as “suppresses the growth”. Also, in series [5] (continuous intravenous infusion for 21 days, highest dose), the “tumor response at the highest dose” value is given as “complete tumor regressions”. In addition, the anti-tumor activity result in series [5] (continuous intravenous infusion for 21 days) is “dose-dependent anti-tumor activity”. Also, in series [5] (highest dose), the “no regrowth after the cessation of treatment” value is recorded as “up to 32 days”. Moreover, the “specificity for DOT1L / H3K79me as compared to other methyl transferases” value in series [6] is recorded as “highly selective”. In addition, the “solubility in aqueous solution” value in series [7] is given as “soluble”.
